{"source": "patent US20210030796A1", "about": "“METHOD FOR PRODUCING ANTIGEN-SPECIFIC T CELLS” (Thyas Co. Ltd., priority 2019, published 2021)", "key": {"[1]": {"system": "mononuclear cells from peripheral blood of a leukemia patient (CD137-expressing T cells)", "assay": "T cell activation by WT1 antigenic peptide stimulation, CD137 expression", "format": "cell-based, human", "conditions": "FIG. 3; medium added with 1 μM CMA; two samples of PBMC from a leukemia patient"}, "[2]": {"system": "mononuclear cells from peripheral blood of a healthy subject (CD137+ T cells)", "assay": "T cell activation by EBV-LMP2A antigenic peptide stimulation, CD137 flow cytometry", "format": "cell-based, human", "conditions": "addition of CMA (0.3 to 3 μM per Example 1), two samples of PBMC from a healthy subject", "procedure": "Re-inoculate in a 24-well plate. Add 0.3 to 3 μM Concanamycin A to a medium and incubate at 37° C. and 5% CO2 for 2 hours. Add 10 μg/ml EBV LMP2A peptide and culture at 37° C. and 5% CO2 for 24 hours. Suspend 2×10^6 cells of peripheral blood mononuclear cells (PBMC) separated from peripheral blood of a healthy subject in a MEM-alpha medium added with 10% FBS, 200 U IL-2 and 20 μg/ml IL-15, and add 10 μg/ml EBV LMP2A peptide. Start culturing at 37° C. and 5% CO2. Replace the medium and divide the wells every 2 to 5 days according to amplification rate of the cells. Culture for 12 days. Collect the cells on day 12 and re-inoculate in a 24-well plate at 2×10^6 cells/well. Add 0.3 to 3 μM Concanamycin A to the medium and incubate at 37° C. and 5% CO2 for 2 hours. Then, add 10 μg/ml EBV LMP2A peptide and culture at 37° C. and 5% CO2 for 24 hours. After 24 hours, stain the cells with CD8-PerCP/Cy5.5 antibody and CD137-PE antibody, and analyze using a flow cytometer (BD FACS Aria II)."}}, "data": [{"smiles": "C/C=C/[C@H]1O[C@@](O)([C@@H](C)[C@H](O)[C@H](C)[C@H]2OC(=O)/C(OC)=C/C(C)=C/[C@@H](C)[C@@H](O)[C@@H](CC)[C@@H](O)[C@H](C)C/C(C)=C/C=C/[C@@H]2OC)C[C@@H](O[C@H]2C[C@@H](O)[C@H](OC(N)=O)[C@@H](C)O2)[C@@H]1C", "note": "[Concanamycin A]", "values": [{"measurement": "percentage of T cells activated (CD137-expressing) by WT1 peptide stimulation", "setting": "[1]", "value": "induced"}, {"measurement": "percentage of CD137+ T cells activated with EBV-LMP2A peptide", "setting": "[2]; FIG. 1", "value": "increased"}, {"measurement": "number of CD137+ T cells activated with EBV-LMP2A peptide", "setting": "[2]; FIG. 2", "value": "increased"}]}]}
